One test has as its system Trichosporon asahii. Nature of the test: Antifungal activity against Trichosporon asahii 1188 after 24 to 48 hrs by two-fold dilution method. In kind it is functional, organism-based.
The test system of test [1] is Klebsiella pneumoniae. Nature of the test: Antibacterial activity against Klebsiella pneumoniae D 11750/08 clinical isolate after 24 to 48 hrs by broth microdilution method. In kind it is functional, organism-based.
In test [2] the test system is Staphylococcus epidermidis. Nature of the test: Antibacterial activity against Staphylococcus epidermidis H 6966/08 clinical isolate after 24 to 48 hrs by broth microdilution method. In kind it is functional, organism-based. For orientation: Dilution methods test growth across graded concentrations, often in twofold steps.
The subject of another test is Nakaseomyces glabratus. Put plainly: Antifungal activity against Candida glabrata 20/I after 24 to 48 hrs by two-fold dilution method. In kind it is functional, organism-based.
The nature of test [3]: Antimycobacterial activity against Mycobacterium avium subsp. avium Chester CNCTC My 80/72 in Middlebrook 7H9 broth after 5 days by AlamarBlue assay. In kind it is functional. The note with it: Chester CNCTC My 80/72, 120 h. A general note: Alamar Blue is a resazurin reagent that responds to reducing activity.
In test [4] the test system is Trichophyton mentagrophytes. Put plainly: Antifungal activity against Trichophyton mentagrophytes 445 after 72 to 120 hrs by two-fold dilution method. In kind it is functional, organism-based.
The test system of another test is Aspergillus fumigatus. Put plainly: Antifungal activity against Aspergillus fumigatus 231 after 24 to 48 hrs by two-fold dilution method. In kind it is functional, organism-based.
The test system of the next test is Escherichia coli. Nature of the test: Antibacterial activity against Escherichia coli CCM 4517 after 24 to 48 hrs by broth microdilution method. In kind it is functional, organism-based.
For another test, the system named is Pichia kudriavzevii. Nature of the test: Antifungal activity against Candida krusei E28 after 24 to 48 hrs by two-fold dilution method. In kind it is functional, organism-based.
For another test, the system named is Mycobacterium kansasii. Nature of the test: Antimycobacterial activity against Mycobacterium kansasii CNCTC My 235/80 in Middlebrook 7H9 broth after 5 days by AlamarBlue assay. It is filed as functional. Particulars: CNCTC My 235/80, 120 h.
The next test concerns Lichtheimia corymbifera. Nature of the test: Antifungal activity against Absidia corymbifera 272 after 24 to 48 hrs by two-fold dilution method. In kind it is functional, organism-based.
Test [5] relates to Staphylococcus aureus. Put plainly: Antibacterial activity against Staphylococcus aureus CCM 4516/08 after 24 to 48 hrs by broth microdilution method. It is filed as functional, organism-based.
The next test deals with Candida tropicalis. Put plainly: Antifungal activity against Candida tropicalis 156 after 24 to 48 hrs by two-fold dilution method. It is filed as functional, organism-based.
The test system of test [6] is Mycobacterium tuberculosis. Nature of the test: Antimycobacterial activity against Mycobacterium tuberculosis H37Rv CNCTC My 331/88 in Middlebrook 7H9 broth after 5 days by AlamarBlue assay. Particulars: H37Rv CNCTC My 331/88, 120 h. In kind it is functional.
The next test deals with Candida albicans. Nature of the test: Antifungal activity against Candida albicans ATCC 44859 after 24 to 48 hrs by two-fold dilution method. It is filed as functional, organism-based.
A further test deals with Enterococcus sp. Put plainly: Antibacterial activity against Enterococcus sp. J 14365/08 clinical isolate after 24 to 48 hrs by broth microdilution method. It is filed as functional, organism-based.
Test [7] relates to Staphylococcus aureus. Put plainly: Antibacterial activity against methicillin-resistant Staphylococcus aureus H 5996/08 clinical isolate after 24 to 48 hrs by broth microdilution method. It is filed as functional, organism-based.
Test [8] has as its system Klebsiella pneumoniae. Put plainly: Antibacterial activity against ESBL-positive Klebsiella pneumoniae J 14368/08 clinical isolate after 24 to 48 hrs by broth microdilution method. In kind it is functional, organism-based.
The next test relates to Pseudomonas aeruginosa. Nature of the test: Antibacterial activity against Pseudomonas aeruginosa CCM 1961 after 24 to 48 hrs by broth microdilution method. In kind it is functional, organism-based.

Calls of active or inactive are those of the source. Where only a bound is given, the exact number is not on record here.

For orientation: MIC means the smallest concentration in the dilution series that meets the test's criterion for growth inhibition. A higher MIC goes with a less susceptible organism. In the case of `O=C(Nc1ccccc1)c1cnc(NCCCO)cn1`, the result (in the test with Trichosporon asahii; with Klebsiella pneumoniae [1]; in [2]; with Nakaseomyces glabratus; in test [4]; with Aspergillus fumigatus) was inactive. The result with Escherichia coli, in the test with Pichia kudriavzevii, in the test with Lichtheimia corymbifera, with Staphylococcus aureus [5], in the test on Candida tropicalis and with Candida albicans was inactive. The result with Enterococcus sp., in the test with Staphylococcus aureus [7], with Klebsiella pneumoniae [8] and in the test with Pseudomonas aeruginosa was inactive. The MIC (in [3]; against Mycobacterium kansasii; in test [6]) was over 100 µg/mL in each case.
As to `O=C(Nc1ccccc1Cl)c1cnc(NCCc2ccccc2)cn1`, the outcome (in the test on Trichosporon asahii; in the test with Klebsiella pneumoniae [1]; in [2]; in the test with Nakaseomyces glabratus; in test [4]; with Aspergillus fumigatus) was inactive. Besides, the result in the test with Escherichia coli, with Pichia kudriavzevii, with Lichtheimia corymbifera, in the test on Staphylococcus aureus [5], with Candida tropicalis and in the test with Candida albicans was inactive. Further, the result in the test on Enterococcus sp., in the test with Staphylococcus aureus [7], in the test on Klebsiella pneumoniae [8] and in the test with Pseudomonas aeruginosa was inactive. Also, the MIC (in [3]; in the test with Mycobacterium kansasii; in [6]) was over 100 µg/mL in each case.
With `O=C(Nc1ccccc1Cl)c1cnc(NCCCCO)cn1`, the result (in the test with Trichosporon asahii; in the test with Klebsiella pneumoniae [1]; in test [2]; with Nakaseomyces glabratus; in test [4]; with Aspergillus fumigatus) was inactive. For the same molecule, the outcome with Escherichia coli, with Pichia kudriavzevii, in the test with Lichtheimia corymbifera, with Staphylococcus aureus [5], in the test on Candida tropicalis and in the test on Candida albicans was inactive. Moreover, the result with Enterococcus sp., in the test on Staphylococcus aureus [7], with Klebsiella pneumoniae [8] and with Pseudomonas aeruginosa was inactive. The MIC (in [3]; in the test on Mycobacterium kansasii; in test [6]) was over 100 µg/mL in each case.
Turning to `O=C(Nc1ccccc1)c1cnc(NCCCCO)cn1`, the outcome (in the test on Trichosporon asahii; in the test with Klebsiella pneumoniae [1]; in [2]; with Nakaseomyces glabratus; in [4]; with Aspergillus fumigatus) was inactive. The outcome in the test with Escherichia coli, in the test on Pichia kudriavzevii, in the test with Lichtheimia corymbifera, in the test with Staphylococcus aureus [5], in the test with Candida tropicalis and in the test with Candida albicans was inactive. Also, the outcome with Enterococcus sp., in the test with Staphylococcus aureus [7], in the test on Klebsiella pneumoniae [8] and with Pseudomonas aeruginosa was inactive. In addition, the minimum inhibitory concentration (MIC) in test [3] is over 100 µg/mL; in the test on Mycobacterium kansasii, over 100 µg/mL; in test [6], 87.3 µM.
As for `COCCCNc1cnc(C(=O)Nc2ccccc2Cl)cn1`, the result (with Trichosporon asahii; in the test with Klebsiella pneumoniae [1]; in [2]; in the test on Nakaseomyces glabratus; in test [4]; in the test on Aspergillus fumigatus) was inactive. In addition, the result in the test on Escherichia coli, in the test with Pichia kudriavzevii, in the test on Lichtheimia corymbifera, with Staphylococcus aureus [5], in the test on Candida tropicalis and with Candida albicans was inactive. Also, the outcome in the test with Enterococcus sp., in the test with Staphylococcus aureus [7], in the test with Klebsiella pneumoniae [8] and in the test with Pseudomonas aeruginosa was inactive. Further, the MIC (in test [3]; against Mycobacterium kansasii; in test [6]) was over 100 µg/mL throughout.
Regarding `O=C(Nc1ccccc1Cl)c1cnc(NCCO)cn1`, the outcome (with Trichosporon asahii; with Klebsiella pneumoniae [1]; in test [2]; in the test with Nakaseomyces glabratus; in test [4]; in the test with Aspergillus fumigatus) was inactive. Moreover, the result in the test with Escherichia coli, with Pichia kudriavzevii, in the test with Lichtheimia corymbifera, in the test with Staphylococcus aureus [5], in the test on Candida tropicalis and with Candida albicans was inactive. The outcome with Enterococcus sp., with Staphylococcus aureus [7], in the test on Klebsiella pneumoniae [8] and with Pseudomonas aeruginosa was inactive. Further, the MIC (in [3]; against Mycobacterium kansasii; in test [6]) was over 100 µg/mL throughout.
In the case of `COCCNc1cnc(C(=O)Nc2ccccc2Cl)cn1`, the result (with Trichosporon asahii; in the test on Klebsiella pneumoniae [1]; in test [2]; in the test with Nakaseomyces glabratus; in test [4]; with Aspergillus fumigatus) was inactive. The result in the test on Escherichia coli, in the test with Pichia kudriavzevii, with Lichtheimia corymbifera, in the test with Staphylococcus aureus [5], with Candida tropicalis and in the test on Candida albicans was inactive. In addition, the result in the test with Enterococcus sp., in the test on Staphylococcus aureus [7], with Klebsiella pneumoniae [8] and in the test on Pseudomonas aeruginosa was inactive. Besides, the minimum inhibitory concentration (MIC) (in test [3]; in the test with Mycobacterium kansasii; in [6]) was over 100 µg/mL each time.
On to `Nc1cnc(C(=O)Nc2ccccc2Cl)cn1`, for which the result (in the test on Trichosporon asahii; with Klebsiella pneumoniae [1]; in [2]; in the test on Nakaseomyces glabratus; in [4]; in the test on Aspergillus fumigatus) was inactive. The result in the test with Escherichia coli, in the test on Pichia kudriavzevii, in the test with Lichtheimia corymbifera, with Staphylococcus aureus [5], with Candida tropicalis and in the test with Candida albicans was inactive. For the same molecule, the outcome with Enterococcus sp., with Staphylococcus aureus [7], in the test with Klebsiella pneumoniae [8] and in the test on Pseudomonas aeruginosa was inactive. The MIC (in test [3]; against Mycobacterium kansasii; in test [6]) was over 100 µg/mL each time.
